In patent publication US20220370416A1, “COMPOUNDS AND METHODS FOR TARGETED DEGRADATION OF KRAS” (Arvinas Operations, Inc., priority 2020, published 2022):

Columns and labels:
KRAS^G12C [1] = target: T1, KRAS^G12C (Homo sapiens, UniProt P01116, G12C); test: KRAS^G12C engagement and degradation by immunoblot in NCI-H2030 cells; assay type: cell-based; parameters: MRTX849-VHL bifunctional compounds engage and degrade endogenous KRAS^G12C in NCI-H2030 cells; endogenous in cells; host or cells: NCI-H2030, NCI-H358, MIA PaCa-2, SW1573, NCI-H23; settings: for KRAS, two-way ANOVA significance vs DMSO: FIG. 9A
Protocol: NCI-H2030 (CRL-5914), MIA PaCa-2 (CRL-1420), NCI-H23 (CRL-5800), NCI-H358 (CRL-5807), and HCT-116 (CCL-247) cells were obtained from ATCC, expanded immediately, and frozen down. Vials were thawed and used within 20 passages. SW1573 cells were a gift from Arvinas and were handled in the same manner. NCI-H2030, NCI-H23, and NCI-H358 were cultured in RPMI (ATCC30-2001) supplemented with 10% FBS (Biological Industries; cat. no. S1480) and 1% Penicillin-Streptomycin (ThermoFisher; cat. no. 15140122). HCT-116 cells were maintained in high glucose DMEM (ThermoFisher; cat. no. 11965084) supplemented as above. MIA PaCa-2 cells were cultured in high glucose DMEM supplemented with 10% FBS, 2.5% horse serum (ThermoFisher; cat. no. 26050-088; lot 2109875), and 1% Penicillin-Streptomycin. SW1573 cells were maintained in DMEM/F12 Nutrient Mix with GlutaMAX supplement (ThermoFisher; cat. no. 10565018) with 10% FBS and 1% Penicillin-Streptomycin added. DPBS (ThermoFisher; cat. no. 14190250) was used to wash cells and 0.25% Trypsin-EDTA (ThermoFisher; cat. no. […]) was used to detach cells for passaging. […] The VHL ligand was generously provided by Arvinas.
Between 2.5×10^5 and 6.0×10^5 cells were seeded into 6-well plates (Corning; cat. no. 353046). The next day, media was removed and cells were treated with 2.5 μM LC-2 for 1, 2, 4, 8, 12, or 24 hours. […] For 24-hour time course experiments, cells were treated at the indicated times and concurrently lysed in RIPA buffer supplemented as described previously. For longer time course experiments and time courses in which cells were treated with LC-2 or LC-2 Epimer, cells were concurrently treated with either compound, then lysed by scraping in RIPA buffer at the indicated time points.
Between 2.5×10^5 and 5.0×10^5 cells were seeded into 6-well plates. The next day cells were pretreated with DMSO, 500 μM or 1 mM VHL ligand, 1 μM epoxomicin, 1 μM […], or 100 nM […] bafilomycin A1 for 1 hour. Media was then removed and cells were treated with DMSO, 2.5 μM LC-2 plus DMSO, 2.5 μM LC-2 Epimer plus DMSO, or co-treated with 2.5 μM LC-2 and the corresponding competitor/inhibitor. H2030 cells were treated for 4 hours and H23 cells were treated for 24 hours, after which cells were lysed by scraping in RIPA buffer supplemented as described previously.
Cell lysates were clarified at 21000×g for 15 mins at 4° C. Protein levels were quantified using a 50:1 mixture of bicinchoninic acid solution (Millipore Sigma; cat. no. B9643) and 4% (w/v) copper(II) sulfate solution (Millipore Sigma; cat. no. C2284) incubated at 37° C. for 30 mins. Absorbance values at 560 nm were read on an EnVision 2101 Multilabel Reader (PerkinElmer). Proteins were separated using 26 well Criterion TGX precast 4-15% (cat. no. 5671085) or 8-16% (cat. no. 5671105) gradient midi gels. After separation, proteins were transferred to nitrocellulose or PVDF membranes at 76 V for 2 hours at 4° C. Blots were then blocked in 5% milk in tris-buffered saline with Tween-20 (TBST; 20 mM Tris, 150 mM NaCl, 0.02% Tween-20). After blocking, blots were incubated in primary antibody overnight (12-18 hours) at 4° C. or for 2 hours at room temperature with mild agitation at the manufacturer's indicated dilution in either 5% milk or 5% BSA in TBST. Blots were then washed thrice with TBST for 5 mins at room temperature. After washing, blots were incubated with 1:5,000-1:10,000 of donkey anti-rabbit (GE Life Sciences; NA934) or sheep anti-mouse (GE Life Sciences; NA931) secondary antibody diluted in 5% milk for 1 hour at room temperature with mild agitation. Blots were again washed thrice with TBST for 5 mins. Chemiluminescent signal was generated using Amersham ECL Prime Western Blotting Detection Reagant (GE Life Sciences; cat. no. RPN2232) or SuperSignal West Femto Maximum Sensitivity Substrate (ThermoFisher; cat. no. 34095). Images were obtained using a Bio-Rad ChemiDoc Imager.

KRAS^G12C [2] = target: T1, KRAS^G12C; test: KRAS^G12C degradation in homozygous MIA PaCa-2 cells; assay type: cell-based; parameters: endogenous in cells; host or cells: MIA PaCa-2; settings: homozygous MIA PaCa-2 cells (FIG. 4B)
KRAS^G12C [3] = target: T1, KRAS^G12C; test: KRAS^G12C degradation in heterozygous NCI-H23 cells; assay type: cell-based; parameters: endogenous in cells; host or cells: NCI-H23
KRAS^G12D = target: T2, KRAS^G12D (Homo sapiens, UniProt P01116, G13D); test: KRAS^G12D degradation in HCT116 cells (specificity); assay type: cell-based; settings: HCT116 cells (FIG. 3B)
T2 construct: KRAS degradation was examined in HCT 116 cells, which harbor a heterozygous KRAS^G13D mutation; endogenous in cells; host or cells: HCT116

[4] = NCI-H2030, homozygous KRAS^G12C

Protocol for pErk: The ability of LC-2 to modulate Erk signaling was investigated in NCI-H2030 and NCI-H23 cells during a 24 hour dose response.
Signaling kinetics were monitored during a 24 hour time course in MIA PaCa2, NCI-H23, and SW1573 cells treated with 2.5 μM LC-2.
NCI-H2030 (CRL-5914), MIA PaCa-2 (CRL-1420), NCI-H23 (CRL-5800), NCI-H358 (CRL-5807), and HCT-116 (CCL-247) cells were obtained from ATCC, expanded immediately, and frozen down. Vials were thawed and used within 20 passages. SW1573 cells were a gift from Arvinas and were handled in the same manner. NCI-H2030, NCI-H23, and NCI-H358 were cultured in RPMI (ATCC30-2001) supplemented with 10% FBS (Biological Industries; cat. no. S1480) and 1% Penicillin-Streptomycin (ThermoFisher; cat. no. 15140122). HCT-116 cells were maintained in high glucose DMEM (ThermoFisher; cat. no. 11965084) supplemented as above. MIA PaCa-2 cells were cultured in high glucose DMEM supplemented with 10% FBS, 2.5% horse serum (ThermoFisher; cat. no. 26050-088; lot 2109875), and 1% Penicillin-Streptomycin. SW1573 cells were maintained in DMEM/F12 Nutrient Mix with GlutaMAX supplement (ThermoFisher; cat. no. 10565018) with 10% FBS and 1% Penicillin-Streptomycin added. DPBS (ThermoFisher; cat. no. 14190250) was used to wash cells and 0.25% Trypsin-EDTA (ThermoFisher; cat. no. 252000-056) was used to detach cells for passaging. […] The VHL ligand was generously provided by Arvinas.
Cell lysates were clarified at 21000×g for 15 mins at 4° C. Protein levels were quantified using a 50:1 mixture of bicinchoninic acid solution (Millipore Sigma; cat. no. B9643) and 4% (w/v) copper(II) sulfate solution (Millipore Sigma; cat. no. C2284) incubated at 37° C. for 30 mins. Absorbance values at 560 nm were read on an EnVision 2101 Multilabel Reader (PerkinElmer). […]

Row | SMILES | earliest time KRAS^G12C binding seen (KRAS^G12C [1]; NCI-H2030, 2.5 μM) [h] | KRAS engagement versus degradation (KRAS^G12C [1]; NCI-H2030, 2.5 μM, 4 hours) | pErk (pErk; NCI-H23, 2.5 μM LC-2, 6 and 24 hours) | pErk signaling (pErk; NCI-H23, 24 hour dose response) | total Erk levels (pErk; NCI-H23, 24 hour dose response) | induction of KRAS^G12C degradation (KRAS^G12C [2]) | Dmax (KRAS^G12C [1]; NCI-H2030) [%] | KRAS, two-way ANOVA significance vs DMSO (KRAS^G12C [1]; NCI-H2030, 0.1 μM) | KRAS, two-way ANOVA significance vs DMSO (KRAS^G12C [1]; NCI-H2030, 0.25 μM) | time to maximum degradation (KRAS^G12C [1]; NCI-H2030, 2.5 μM) [h] | KRAS degradation (KRAS^G12C [1]; NCI-H2030, 2.5 μM, 4 hours) [%] | persistence of maximum degradation (KRAS^G12C [1]; NCI-H2030, 2.5 μM, 24 hour time course) | DC50 (KRAS^G12C [1]; [4]) [nM] | Dmax (KRAS^G12C [1]; [4]) [%] | lowest concentration inducing maximal degradation of endogenous KRAS^G12C (KRAS^G12C [1]; NCI-H2030 cells) [µM] | rescue of induced KRAS^G12C degradation (mechanism) (KRAS^G12C [3]; NCI-H23 cells, neddylation inhibition vs inhibition of lysosomal acidification (FIG. 5B)) | induction of KRAS^G12C degradation (KRAS^G12C [3]; heterozygous NCI-H23 cells (FIG. 4D)) | degradation of KRAS^G12D (KRAS^G12D)
1 | C=C(F)C(=O)N1CCN(c2nc(OC[C@@H]3CCCN3CCCOCCC(=O)N[C@H](C(=O)N3C[C@@H](O)C[C@H]3C(=O)NCc3ccc(-c4scnc4C)cc3)C(C)(C)C)nc3c2CCN(c2cccc4cccc(Cl)c24)C3)C[C@@H]1CC#N [LC-2 Epimer, (2S,4S)-1-((S)-2-(3-(3-((S)-2-(((7-(8-chloronaphthalen-1-yl)-4-((S)-3-(cyanomethyl)-4-(2-fluoroacryloyl)piperazin-1-yl)-5,6,7,8-tetrahydropyrido[3,4-d]pyrimidin-2-yl)oxy)methyl)pyrrolidin-1-yl)propoxy)propanamido)-3,3-dimethylbutanoyl)-4-hydroxy-N-(4-(4-methylthiazol-5-yl)benzyl)pyrrolidine-2-carboxamide] | 1 | only KRAS engagement was observed | – | – | – | – | – | – | – | – | – | – | – | – | – | – | – | –
2 | C=C(F)C(=O)N1CCN(c2nc(OC[C@@H]3CCCN3CCCOCCC(=O)N[C@H](C(=O)N3C[C@H](O)C[C@H]3C(=O)NCc3ccc(-c4scnc4C)cc3)C(C)(C)C)nc3c2CCN(c2cccc4cccc(Cl)c24)C3)C[C@@H]1CC#N [LC-2, (2S,4R)-1-((S)-2-(3-(3-((S)-2-(((7-(8-chloronaphthalen-1-yl)-4-((S)-3-(cyanomethyl)-4-(2-fluoroacryloyl)piperazin-1-yl)-5,6,7,8-tetrahydropyrido[3,4-d]pyrimidin-2-yl)oxy)methyl)pyrrolidin-1-yl)propoxy)propanamido)-3,3-dimethylbutanoyl)-4-hydroxy-N-(4-(4-methylthiazol-5-yl)benzyl)pyrrolidine-2-carboxamide] | 1 | – | suppressed | dose-dependent decrease in pErk | elevated in a dose-dependent manner | induces KRAS^G12C | > 75 | N.S. | N.S. | ≤ 8 | ~65 | persisted up to 24 hours | 590 ± 200 | >75 | 2.5 | Inhibition of neddylation, but not inhibition of lysosomal acidification, rescues | induces KRAS^G12C degradation | does not degrade KRAS^G12D
